This experiment deals with T1, human muscarinic receptor subtype 1 (M1) (Homo sapiens, UniProt P11229).
T1 sequence (P11229 1-460): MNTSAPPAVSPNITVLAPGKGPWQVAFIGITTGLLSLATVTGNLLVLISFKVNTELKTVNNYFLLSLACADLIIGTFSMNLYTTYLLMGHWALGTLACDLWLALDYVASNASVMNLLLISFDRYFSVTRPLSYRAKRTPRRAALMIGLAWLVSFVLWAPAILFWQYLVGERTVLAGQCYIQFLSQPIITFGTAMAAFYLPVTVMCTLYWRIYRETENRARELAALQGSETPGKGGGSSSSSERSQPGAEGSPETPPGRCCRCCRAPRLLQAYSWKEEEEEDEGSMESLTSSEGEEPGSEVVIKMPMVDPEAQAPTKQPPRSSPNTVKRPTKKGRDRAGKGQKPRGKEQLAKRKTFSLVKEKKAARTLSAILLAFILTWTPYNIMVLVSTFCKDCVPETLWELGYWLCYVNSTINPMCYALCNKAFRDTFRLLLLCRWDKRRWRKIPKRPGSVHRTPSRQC
The experiment in a line: Calcium mobilization assay in hM1-CHO cells, PAM activity with EC20 acetylcholine. The experiment is classed as cell-based. To be noted: for EC50: read-out: hM1 pEC50 ± SEM (converted). How it is done: page 2: Procedures for Biological Experiments Calcium mobilization assays: To measure the functional activity of positive allosteric modulator (PAM) compounds in a cellular assay, human or rat muscarinic receptor subtype 1 (M1) was stably expressed in the Chinese hamster ovary (CHO) cells to evoke an increase in intracellular calcium to an EC20 concentration of acetylcholine (ACh) agonist. The stable M1-CHO cells were cultured in F12 medium containing 10% fetal bovine serum, 20 mM HEPES, 100 units/mL antibiotics/antimycotic, 0.5 mg/ml G418. All reagents used were from Life Technologies (Carlsbad, CA) unless otherwise noted. Briefly, the day before the assay, stable M1-CHO cells (15,000 cells/20 μL/well) were plated in black-walled, clear-bottomed, 384 well plates (Greiner Bio-One, Monroe, NC) in the culture medium without G418, and then incubated overnight at 37 °C in the presence of 5% CO2. The next day, calcium assay buffer (Hank’s balanced salt solution (HBSS), 20 mM HEPES, 2.5 mM Probenecid, 4.16 mM sodium bicarbonate (Sigma-Aldrich, St. Louis, MO) was prepared to dilute […] calcium indicator dye. […] curves in DMSO using the Bravo Liquid Handler (Agilent, Santa Clara, CA), transferred to a 384 well daughter plates using an Echo acoustic liquid handler (Beckman Coulter, Indianapolis, Indiana), and diluted in assay Buffer to a 2X final concentration. The agonist plates were prepared using acetylcholine (ACh, Sigma-Aldrich, St. Louis, MO) concentrations for the EC20 and ECMAX responses by diluting in assay buffer to a 5X final concentration. The 2X dye solution (2.3 µM) was prepared by mixing a 2.3 mM Fluo-4-AM stock in DMSO with 10% (w/v) pluronic acid F- 127 in a 1:1 ratio in assay buffer. Using a microplate washer (BioTek, Winooski, VT), cells were washed with assay buffer for 3 times to remove medium. After the final wash, 20 μL of assay buffer remained in the cell plates. Immediately, 20 μL of the 2X dye solution (final 1.15 µM) was added to each well of the cell plate using a Multidrop Combi dispenser (Thermo Fisher, Waltham, MA). After cells were incubated with the dye solutions for 45 min at 37 °C in the presence of 5% CO2, the dye solutions were removed and replaced with assay buffer using a microplate washer, leaving 20 μL of assay buffer in the cell plate. The compound, agonist, and cell plates were placed inside the Functional Drug Screening System uCell (FDSS uCell, Hamamatsu, Japan) to measure the calcium flux. The triple add protocol was used to measure Ca kinetics; Compound, ACh for EC20, and ACh for ECMAX adds in an order. Briefly, after establishment of a fluorescence baseline S2 page 3: for 2 seconds (excitation, 480 nm; emission, 530 nm), first add occurred by adding 20 µL of test compound to the cells, and the response was measured for 140 seconds. This is followed by second add; 10 µL (5X) of an EC20 concentration of ACh agonist was added to the cells, and the response of the cells was measured for 125 seconds. Immediately, the third add occurred by adding 12 ul assay buffer or 5X of an EC max concentration of ACh and the response of the cells was measured for 90 seconds. Assay buffer was added to the wells that incubated with compounds followed by EC20 concentration of ACh. Agonists containing ECmax concentration of ACh were added to the wells that incubated with DMSO and assay buffer from the 1st and 2nd adds to measure maximum Ca responses (ECmax). Calcium fluorescence was recorded as fold over basal fluorescence and raw data were normalized to the maximal response to ACh agonist. […]

For the compound `Cn1cc(-c2ccc(Cc3cc(C(=O)N[C@H]4CCCC[C@@H]4O)nn3C3CCCC3)cc2)cn1` [17k], the “hM1 %ACh Max ± SEM” value stood at 82 ± 4.4 %ACh Max and the EC50 was 589 nM.
In the case of `Cn1cc(-c2ccc(Cc3cc(C(=O)N[C@H]4CCOC[C@@H]4O)nn3C3CCCC3)cc2)cn1` [17g], the “hM1 %ACh Max ± SEM” value came to 82 ± 3.4 %ACh Max and the EC50 was 427 nM.

The values are drawn from publication PMC12257413, “Discovery of a Novel sp^3‑Rich M1 Positive Allosteric Modulators (PAMs) Chemotype via Scaffold Hopping” (ACS Medicinal Chemistry Letters, 2025).
